Source: US9615577B2, “Herbicidally active cyclic dione compounds, or derivatives therefor, substituted by a phenyl which has an alkynyl-containing substituent” (Syngenta Limited, priority 2012, dated 2017)

Columns and labels:
Type in all cases: in vivo
[1] = tested on: Abutilon theophasti Medik. (ABUTH); experiment: Biological Example 2 comparative herbicidal data, post-emergence glasshouse screen; conditions: read-out: Post-emergence herbicidal activities (percentage phytotoxicity) ABUTH; for pest or weed control at 8 g/ha: 8 g/ha application rate; for pest or weed control at 30 g/ha: 30 g/ha application rate
[2] = tested on: Amarantus retroflexus (AMARE); experiment: as above; conditions: Amaranthus retroflexus, read-out: Post-emergence herbicidal activities (percentage phytotoxicity) AMARE; for pest or weed control at 8 g/ha: 8 g/ha application rate; for pest or weed control at 30 g/ha: 30 g/ha application rate
[3] = tested on: Alopecurus myosuroides (ALOMY); experiment: as above; conditions: 312 h, read-out: Post-emergence herbicidal activities (percentage phytotoxicity) ALOMY; for pest or weed control at 8 g/ha: 8 g/ha application rate; for pest or weed control at 30 g/ha: 30 g/ha application rate; for pest or weed control at 15.625 g/ha: 15.625 g/ha application rate; for pest or weed control at 62.5 g/ha: 62.5 g/ha application rate
Method in brief: (§1)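 Plants grown 8 days in a glasshouse (24/16°C day/night, 14 h light, 65% humidity) were sprayed with compound in acetone/water (50:50) containing 0.5% Tween 20. They were kept under the same conditions and watered twice daily. Phytotoxicity was scored visually after 13 days (0 = no damage, 100 = total damage).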

Setaria faberi (SETFA) = experiment: as above; conditions: 312 h, read-out: Post-emergence herbicidal activities (percentage phytotoxicity) SETFA; for pest or weed control at 8 g/ha: 8 g/ha application rate; for pest or weed control at 30 g/ha: 30 g/ha application rate; for pest or weed control at 15.625 g/ha: 15.625 g/ha application rate; for pest or weed control at 62.5 g/ha: 62.5 g/ha application rate
Method in brief: as §1

[4] = tested on: Echinochloa crus-galli (ECHCG); experiment: as above; conditions: 312 h, read-out: Post-emergence herbicidal activities (percentage phytotoxicity) ECHCG; for pest or weed control at 8 g/ha: 8 g/ha application rate; for pest or weed control at 30 g/ha: 30 g/ha application rate; for pest or weed control at 15.625 g/ha: 15.625 g/ha application rate; for pest or weed control at 62.5 g/ha: 62.5 g/ha application rate
Method in brief: as §1

[5] = tested on: Brachiaria plantaginea (BRAPL); experiment: Test 1B glasshouse assay for herbicidal activity, pre-emergence; conditions: Urochloa plantaginea, 480 h, 20 DAA, read-out: percentage phytotoxicity BRAPL
Method in brief: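 Warm-climate glasshouse, 24/18° C., 16 h light, 65% humidity. Spray: IF50 (50 g/liter stock) in 0.2% v/v X-77; pre-emergence 1 day post-sowing, post-emergence ~12 days (10-13). Visual phytotoxicity 0-100%, at 15 DAA post, 20 DAA pre.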

[6] = tested on: Ipomoea hederacea (IPOHE); experiment: Test 1A glasshouse assay for herbicidal activity, post-emergence; conditions: 312 h, evaluated after 13 days, read-out: percentage phytotoxicity IPOHE
Method in brief: (§2)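 Damage is rated by eye as percent phytotoxicity on a 0–100 scale, 13 days after treatment. Compound is sprayed in acetone/water (50:50) with 0.5% Tween 20 onto pots one day (pre-emergence) or eight days (post-emergence) after sowing, with plants kept at 24/16 °C and 14 h light.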

Solanum nigrum (SOLNI) [7] = experiment: as above; conditions: 312 h, evaluated after 13 days, read-out: percentage phytotoxicity SOLNI
Method in brief: as §2

[8] = tested on: Ipomoea hederacea (IPOHE); experiment: Test 1A glasshouse assay for herbicidal activity, pre-emergence; conditions: 312 h, evaluated after 13 days, read-out: percentage phytotoxicity IPOHE
Method in brief: as §2

Solanum nigrum (SOLNI) [9] = experiment: as above; conditions: 312 h, evaluated after 13 days, read-out: percentage phytotoxicity SOLNI
Method in brief: as §2

Row | Compound | pest or weed control at 8 g/ha [1] | pest or weed control at 30 g/ha [1] | pest or weed control at 8 g/ha [2] | pest or weed control at 30 g/ha [2] | pest or weed control at 8 g/ha [3] | pest or weed control at 30 g/ha [3] | pest or weed control at 8 g/ha (Setaria faberi (SETFA)) | pest or weed control at 30 g/ha (Setaria faberi (SETFA)) | pest or weed control at 8 g/ha [4] | pest or weed control at 30 g/ha [4] | pest or weed control at 250 g/ha [6] | pest or weed control at 250 g/ha (Solanum nigrum (SOLNI) [7]) | pest or weed control at 15.625 g/ha [3] | pest or weed control at 62.5 g/ha [3] | pest or weed control at 15.625 g/ha (Setaria faberi (SETFA)) | pest or weed control at 62.5 g/ha (Setaria faberi (SETFA)) | pest or weed control at 15.625 g/ha [4] | pest or weed control at 62.5 g/ha [4] | pest or weed control at 250 g/ha [8] | pest or weed control at 250 g/ha (Solanum nigrum (SOLNI) [9]) | other results
1 | CC#Cc1cc(Cl)c(C2C(=O)CC3(CCOCC3)CC2=O)c(OC)c1 [Compound A-20, 9-(2-Chloro-6-methoxy-4-prop-1-ynyl-phenyl)-3-oxa-spiro[5.5]undecane-8,10-dione] | 50% | 80% | 10% | 80% | 90% | 100% | 90% | 100% | 100% | 100% | – | – | – | – | – | – | – | – | – | – | –
2 | CC#Cc1cc(C)c(C2=C(OC(=O)OC)CC(c3ccccn3)CC2=O)c(C)c1 (stereo not drawn) [Compound A-14] | – | – | – | – | – | – | – | – | – | – | – | – | – | – | – | – | – | – | – | – | pest or weed control at 250 g/ha [5]: 90%
3 | Cc1cc(C#CCl)cc(C)c1C1C(=O)CC(CC2CCOCC2)CC1=O (stereo not drawn) [Compound A-8] | – | – | – | – | – | – | – | – | – | – | 70% | 80% | 70% | 80% | 80% | 90% | 90% | 100% | 30% | 70% | –
4 | CC#Cc1cc(C)c(C2C(=O)C3CCC(C3)C2=O)c(C)c1 (stereo not drawn) [Compound A-5] | 0% | 0% | 0% | 10% | 50% | 80% | 30% | 70% | 80% | 100% | – | – | – | – | – | – | – | – | – | – | pest or weed control at 500 g/ha [5]: 100%
5 | CC#Cc1ccc(C2C(=O)C3CCC(C3)C2=O)c(C)c1 (single isomer, unassigned) [Compound A-2] | – | – | – | – | – | – | – | – | – | – | 30% | 20% | – | – | – | – | – | – | 10% | 0% | pest or weed control at 500 g/ha [5]: 100%
6 | CC#Cc1cc(C)c(C2C(=O)CC(c3ccccn3)CC2=O)c(C)c1 (stereo not drawn) [Compound A-13] | 0% | 40% | 0% | 30% | 60% | 70% | 80% | 90% | 80% | 80% | – | – | – | – | – | – | – | – | – | – | pest or weed control at 250 g/ha [5]: 90%
7 | CC#Cc1cc(C)c(C2C(=O)CC(CCSC)CC2=O)c(C)c1 (stereo not drawn) [Compound A-21, 2-(2,6-Dimethyl-4-prop-1-ynyl-phenyl)-5-(2-methylsulfanyl-ethyl)cyclohexane-1,3-dione] | 70% | 10% | 30% | 80% | 50% | 50% | 50% | 70% | 80% | 80% | – | – | – | – | – | – | – | – | – | – | –
8 | Cc1cc(C#CCl)cc(C)c1C1C(=O)C2CCC(C2)C1=O (stereo not drawn) [Compound A-6] | – | – | – | – | – | – | – | – | – | – | 20% | 20% | 70% | 70% | 90% | 90% | 90% | 100% | 10% | 20% | pest or weed control at 125 g/ha [5]: 80%; pest or weed control at 62.5 g/ha ([6]; 62.5 g/ha): 30%; pest or weed control at 62.5 g/ha (Solanum nigrum (SOLNI) [7]; 62.5 g/ha): 20%
9 | CC#Cc1ccc(C2C(=O)C(C)(C)OC(C)(C)C2=O)c(C)c1 [Compound A-1] | – | – | – | – | – | – | – | – | – | – | 90% | 30% | 10% | 80% | 20% | 40% | 20% | 90% | 0% | 0% | pest or weed control at 500 g/ha [5]: 90%
10 | CC#Cc1cc(C)c(C2=C(OC(C)=O)CC(c3ccccn3)CC2=O)c(C)c1 (stereo not drawn) [Compound A-15] | – | – | – | – | – | – | – | – | – | – | – | – | – | – | – | – | – | – | – | – | pest or weed control at 125 g/ha [5]: 90%
11 | CC#Cc1cc(Cl)c(C2C(=O)C3CCC(C3)C2=O)c(OC)c1 (stereo not drawn) [Compound A-12] | 10% | 40% | 0% | 0% | 40% | 90% | 50% | 90% | 90% | 100% | – | – | – | – | – | – | – | – | – | – | pest or weed control at 250 g/ha [5]: 100%
12 | CC#Cc1cc(C)c(C2C(=O)C3CCC(C3)C2=O)c(OC)c1 (stereo not drawn) [Compound A-10] | – | – | – | – | – | – | – | – | – | – | – | – | – | – | – | – | – | – | – | – | pest or weed control at 125 g/ha [5]: 80%
13 | CC#Cc1cc(C)c(C2C(=O)CC(CC3CCOCC3)CC2=O)c(C)c1 (stereo not drawn) [Compound A-9] | – | – | – | – | – | – | – | – | – | – | 50% | 80% | 80% | 90% | 80% | 90% | 100% | 100% | 20% | 70% | –
